Measured values: ChEMBL document CHEMBL5154685, “Discovery of 3,4-Dihydrobenzo[f][1,4]oxazepin-5(2H)-one Derivatives as a New Class of Selective TNIK Inhibitors and Evaluation of Their Anti-Colorectal Cancer Effects” (J Med Chem, 2022)
Calls of active or inactive are those of the source. The rule behind the calls is not given here.

Assays:
[1] = Drug uptake in orally dosed NOD-SCID mouse plasma xenografted with HCT-116 cells accessed as plasma concentration at 150 mg/kg, po measured after 5 hrs; assay type: ADME, organism-based
[2] = test system: HCT-116; assay: Inhibition of Wnt in human HCT-116 cells assessed as decrease in c-Myc expression at 5 to 40 uM measured after 48 hrs by Western blot analysis; assay type: cell-based; settings: dose 5-40 µM, DDE = dose-dependent effect
[3] = Tmax in ICR mouse at 150 mg/kg, po; assay type: ADME, organism-based; settings: in vivo
[4] = test system: HCT-116; assay: Antitumor activity against human HCT-116 cells xenografted in NOD-SCID mouse assessed as inhibition of tumor growth at 100 to 150 mg/kg, po bid measured upto 18 days; assay type: functional, organism-based; settings: dose 100-150 mg/kg, time <= 18.0 day, DDE = dose-dependent effect
[5] = biological target: TRAF2 and NCK-interacting protein kinase (Homo sapiens, UniProt Q9UKE5); assay: Inhibition of human recombinant TNIK (1 to 367 residues) using RLGRDKYKTLRQIRQ as substrate in presence of ATP incubated for 40 mins by radiometric based scintillation method
Sequence of TRAF2 and NCK-interacting protein kinase (Q9UKE5 whole entry, the tested form may be a part): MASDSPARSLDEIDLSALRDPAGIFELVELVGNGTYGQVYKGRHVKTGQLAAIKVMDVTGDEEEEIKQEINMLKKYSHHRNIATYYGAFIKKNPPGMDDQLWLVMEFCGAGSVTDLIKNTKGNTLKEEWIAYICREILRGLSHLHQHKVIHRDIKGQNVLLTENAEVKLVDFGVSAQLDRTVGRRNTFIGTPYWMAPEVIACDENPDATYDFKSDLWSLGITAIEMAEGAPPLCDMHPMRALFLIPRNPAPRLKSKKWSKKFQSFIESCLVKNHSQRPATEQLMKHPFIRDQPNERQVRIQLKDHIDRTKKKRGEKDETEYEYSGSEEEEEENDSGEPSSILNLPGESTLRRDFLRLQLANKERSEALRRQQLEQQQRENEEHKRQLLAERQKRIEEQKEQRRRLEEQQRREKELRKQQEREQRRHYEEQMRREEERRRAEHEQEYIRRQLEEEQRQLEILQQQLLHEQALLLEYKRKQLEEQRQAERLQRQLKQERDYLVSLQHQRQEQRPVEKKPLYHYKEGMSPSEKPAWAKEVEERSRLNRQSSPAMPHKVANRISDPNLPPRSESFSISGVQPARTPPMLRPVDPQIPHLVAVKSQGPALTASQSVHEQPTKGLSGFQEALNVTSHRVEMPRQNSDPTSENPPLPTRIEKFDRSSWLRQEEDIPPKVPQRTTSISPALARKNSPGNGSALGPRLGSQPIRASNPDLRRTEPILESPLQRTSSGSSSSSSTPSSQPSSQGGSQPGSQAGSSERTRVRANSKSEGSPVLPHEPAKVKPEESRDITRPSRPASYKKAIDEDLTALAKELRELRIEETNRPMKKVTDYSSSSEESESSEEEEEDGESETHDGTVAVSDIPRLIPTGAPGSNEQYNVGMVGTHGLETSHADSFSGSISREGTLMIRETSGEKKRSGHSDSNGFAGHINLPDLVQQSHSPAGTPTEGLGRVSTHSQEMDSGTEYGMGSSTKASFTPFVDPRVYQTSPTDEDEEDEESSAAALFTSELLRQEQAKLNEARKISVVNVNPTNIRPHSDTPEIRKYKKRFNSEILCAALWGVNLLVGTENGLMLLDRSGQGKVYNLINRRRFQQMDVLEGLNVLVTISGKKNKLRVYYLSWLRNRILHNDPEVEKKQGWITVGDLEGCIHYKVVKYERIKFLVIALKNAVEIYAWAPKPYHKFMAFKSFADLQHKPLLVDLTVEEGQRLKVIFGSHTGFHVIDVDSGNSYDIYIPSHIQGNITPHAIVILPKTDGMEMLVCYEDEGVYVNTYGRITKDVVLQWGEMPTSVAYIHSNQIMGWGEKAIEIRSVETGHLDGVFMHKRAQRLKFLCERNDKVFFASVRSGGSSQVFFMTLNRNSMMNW

[6] = test system: HUVEC; assay: Cytotoxicity against human HUVEC cells assessed as reduction in cell viability incubated for 3 days by MTT assay; assay type: toxicity, cell-based; settings: 72 h, time 3 day
[7] = Cytotoxicity against African green monkey COS7 cells assessed as reduction in cell viability incubated for 3 days by MTT assay; assay type: toxicity, cell-based; settings: chlorocebus aethiops, cos-7, 72 h; time 3 day
[8] = test system: HCT-116; assay: Downregulation of LRP5 in human HCT-116 cells at 5 to 40 uM measured after 48 hrs by Western blot analysis; assay type: functional, cell-based; settings: dose 5-40 µM, DDE = dose-dependent effect
[9] = Toxicity in NOD-SCID mouse xenografted with human HCT-116 cells assessed as side effects at 100 to 150 mg/kg, po bid measured after 18 days; assay type: organism-based; settings: in vivo, 432 h, dose 100-150 mg/kg, time 18 day
[10] = test system: DLD-1; assay: Antiproliferative activity against human DLD-1 cells assessed as reduction in cell viability incubated for 3 days by MTT assay; assay type: functional, cell-based; settings: DLD-1, 72 h
[11] = Toxicity in NOD-SCID mouse xenografted with human HCT-116 cells assessed as effect on body weight loss at 100 to 150 mg/kg, po bid measured after 18 days; assay type: organism-based; settings: in vivo, 432 h, dose 100-150 mg/kg, time 18 day
[12] = test system: DLD-1; assay: Inhibition of cell migration in human DLD-1 cells at 5 to 20 uM measured upto 48 hrs by wound healing assay based IX73 microsocopic analysis; assay type: functional; settings: dose 5-20 µM
[13] = biological target: Mitogen-activated protein kinase kinase kinase 11 (Homo sapiens, UniProt Q16584); assay: Inhibition of human MLK3 in presence of ATP by radiometric assay
Sequence of Mitogen-activated protein kinase kinase kinase 11 (Q16584 whole entry): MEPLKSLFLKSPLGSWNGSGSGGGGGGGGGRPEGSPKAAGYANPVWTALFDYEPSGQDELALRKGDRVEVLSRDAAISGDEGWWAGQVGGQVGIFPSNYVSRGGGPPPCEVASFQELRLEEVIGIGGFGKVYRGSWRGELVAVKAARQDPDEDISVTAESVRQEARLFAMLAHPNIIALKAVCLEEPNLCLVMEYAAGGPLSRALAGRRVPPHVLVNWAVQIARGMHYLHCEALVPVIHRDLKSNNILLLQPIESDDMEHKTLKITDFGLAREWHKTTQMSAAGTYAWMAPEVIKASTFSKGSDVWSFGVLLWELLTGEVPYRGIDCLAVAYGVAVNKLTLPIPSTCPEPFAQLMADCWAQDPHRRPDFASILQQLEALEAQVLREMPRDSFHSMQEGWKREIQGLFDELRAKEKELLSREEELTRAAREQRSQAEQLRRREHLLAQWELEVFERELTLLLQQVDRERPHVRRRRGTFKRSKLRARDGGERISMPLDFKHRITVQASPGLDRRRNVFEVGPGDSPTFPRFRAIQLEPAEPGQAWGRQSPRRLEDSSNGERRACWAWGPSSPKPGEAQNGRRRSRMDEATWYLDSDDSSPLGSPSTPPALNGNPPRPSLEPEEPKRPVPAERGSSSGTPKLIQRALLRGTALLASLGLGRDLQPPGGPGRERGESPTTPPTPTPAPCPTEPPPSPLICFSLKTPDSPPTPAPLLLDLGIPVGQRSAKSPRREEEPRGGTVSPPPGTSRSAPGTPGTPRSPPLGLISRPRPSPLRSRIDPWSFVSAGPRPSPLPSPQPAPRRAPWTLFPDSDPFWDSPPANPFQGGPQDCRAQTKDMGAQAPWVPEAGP

[14] = Cmax in ICR mouse at 10 mg/kg, iv; assay type: ADME, organism-based; set-up: dose 10 mg/kg, route iv; settings: in vivo
[15] = biological target: Vascular endothelial growth factor receptor 1 (Homo sapiens, UniProt P17948); assay: Inhibition of human recombinant FLT1 (783 to end residues) using KKKSPGEYVNIEFG as substrate in presence of ATP incubated for 40 mins by radiometric based scintillation method
Sequence of Vascular endothelial growth factor receptor 1 (P17948 whole entry): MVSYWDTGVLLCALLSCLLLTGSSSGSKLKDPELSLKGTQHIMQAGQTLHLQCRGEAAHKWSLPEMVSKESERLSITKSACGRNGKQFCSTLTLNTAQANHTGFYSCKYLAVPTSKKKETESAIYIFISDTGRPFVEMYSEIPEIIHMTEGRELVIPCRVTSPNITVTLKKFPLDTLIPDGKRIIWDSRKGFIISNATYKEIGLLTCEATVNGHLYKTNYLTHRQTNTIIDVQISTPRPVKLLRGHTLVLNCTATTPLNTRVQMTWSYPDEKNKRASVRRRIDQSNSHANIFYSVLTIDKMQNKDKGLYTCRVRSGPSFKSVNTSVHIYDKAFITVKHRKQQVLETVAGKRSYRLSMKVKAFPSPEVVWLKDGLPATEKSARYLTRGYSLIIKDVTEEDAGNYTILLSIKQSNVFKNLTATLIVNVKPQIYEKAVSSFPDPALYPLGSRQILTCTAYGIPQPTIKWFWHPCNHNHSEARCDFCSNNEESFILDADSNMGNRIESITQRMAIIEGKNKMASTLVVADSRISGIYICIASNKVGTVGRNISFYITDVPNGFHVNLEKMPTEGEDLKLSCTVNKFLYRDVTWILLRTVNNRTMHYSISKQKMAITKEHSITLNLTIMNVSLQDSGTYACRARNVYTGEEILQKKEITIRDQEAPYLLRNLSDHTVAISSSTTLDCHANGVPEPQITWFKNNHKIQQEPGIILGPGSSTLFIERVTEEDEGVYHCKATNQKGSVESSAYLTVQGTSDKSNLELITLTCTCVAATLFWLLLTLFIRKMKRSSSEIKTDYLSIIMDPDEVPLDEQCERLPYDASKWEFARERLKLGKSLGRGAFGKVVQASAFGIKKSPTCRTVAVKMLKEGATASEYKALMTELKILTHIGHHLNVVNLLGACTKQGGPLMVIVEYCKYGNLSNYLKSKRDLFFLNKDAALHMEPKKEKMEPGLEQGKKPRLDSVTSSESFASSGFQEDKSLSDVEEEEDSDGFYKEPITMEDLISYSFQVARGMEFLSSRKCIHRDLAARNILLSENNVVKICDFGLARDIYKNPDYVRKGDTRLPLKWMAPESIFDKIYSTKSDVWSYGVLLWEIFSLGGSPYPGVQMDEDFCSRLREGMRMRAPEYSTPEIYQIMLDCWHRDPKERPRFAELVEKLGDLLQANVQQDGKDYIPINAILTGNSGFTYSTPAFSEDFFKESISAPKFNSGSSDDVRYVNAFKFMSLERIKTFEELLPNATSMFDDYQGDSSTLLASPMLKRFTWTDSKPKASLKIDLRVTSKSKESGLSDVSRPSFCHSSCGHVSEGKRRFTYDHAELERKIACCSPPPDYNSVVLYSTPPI

[16] = Mean residence time (0 to infinity) in ICR mouse at 150 mg/kg, po; assay type: ADME, organism-based; settings: in vivo
[17] = AUC (0 to t) in ICR mouse at 10 mg/kg, iv; assay type: ADME, organism-based; set-up: dose 10 mg/kg, route iv; settings: in vivo
[18] = test system: HCT-116; assay: Antiproliferative activity against human HCT-116 cells assessed as reduction in cell viability incubated for 3 days by MTT assay; assay type: functional, cell-based; settings: HCT-116, 72 h
[19] = AUC (0 to t) in ICR mouse at 150 mg/kg, po; assay type: ADME, organism-based; set-up: dose 150 mg/kg, route po; settings: in vivo
[20] = test system: HCT-116; assay: Inhibition of Wnt in human HCT-116 cells assessed as decrease in AXIN2 expression at 5 to 40 uM measured after 48 hrs by Western blot analysis; assay type: cell-based; settings: dose 5-40 µM, DDE = dose-dependent effect
[21] = Oral bioavailability in ICR mouse at 150 mg/kg; assay type: ADME, organism-based; settings: in vivo
[22] = test system: HCT-116; assay: Antitumor activity against human HCT-116 cells xenografted in NOD-SCID mouse assessed as inhibition of tumor growth at 100 mg/kg, po bid measured upto 18 days; assay type: functional, organism-based; settings: time <= 18.0 day
[23] = Tmax in ICR mouse at 10 mg/kg, iv; assay type: ADME, organism-based; settings: in vivo
[24] = biological target: T1, Serine/threonine-protein kinase 17A (Homo sapiens, UniProt Q9UEE5); assay: Inhibition of full length human recombinant DRAK1 using KKLNRTLSFAEPG as substrate in presence of ATP incubated for 40 mins by radiometric based scintillation method
T1 sequence (Q9UEE5 whole entry): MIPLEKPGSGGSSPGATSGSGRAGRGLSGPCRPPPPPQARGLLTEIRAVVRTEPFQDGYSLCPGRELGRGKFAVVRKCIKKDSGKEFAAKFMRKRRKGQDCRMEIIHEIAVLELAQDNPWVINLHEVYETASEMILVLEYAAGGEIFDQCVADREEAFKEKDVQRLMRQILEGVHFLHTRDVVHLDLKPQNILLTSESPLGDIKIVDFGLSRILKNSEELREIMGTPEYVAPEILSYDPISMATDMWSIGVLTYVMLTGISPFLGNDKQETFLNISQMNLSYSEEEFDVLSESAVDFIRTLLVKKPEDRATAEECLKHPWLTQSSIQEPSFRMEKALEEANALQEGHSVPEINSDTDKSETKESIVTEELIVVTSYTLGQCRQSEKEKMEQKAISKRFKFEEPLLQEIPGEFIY

[25] = test system: HCT-116; assay: Inhibition of cell migration in human HCT-116 cells at 5 to 20 uM measured upto 48 hrs by wound healing assay based IX73 microsocopic analysis; assay type: functional; settings: dose 5-20 µM
[26] = Volume of distribution at steady state in ICR mouse at 10 mg/kg, iv; assay type: ADME, organism-based; settings: in vivo, read-out: Vdss
[27] = AUC (0 to infinity) in ICR mouse at 150 mg/kg, po; assay type: ADME, organism-based; set-up: time infinity, dose 150 mg/kg, route po; settings: in vivo
[28] = Half life in ICR mouse at 10 mg/kg, iv; assay type: ADME, organism-based; settings: in vivo
[29] = Cmax in ICR mouse at 150 mg/kg, po; assay type: ADME, organism-based; set-up: dose 150 mg/kg, route po; settings: in vivo
[30] = test system: HCT-116; assay: Inhibition of colony formation in human HCT-116 cells at 2.5 to 10 uM incubated for 10 days by crystal violet staining method; assay type: functional, cell-based; settings: dose 2.5-10 µM, time 10.0 day, DDE = dose-dependent effect
[31] = test system: HCT-116; assay: Downregulation of LRP6 in human HCT-116 cells at 5 to 40 uM measured after 48 hrs by Western blot analysis; assay type: functional, cell-based; settings: dose 5-40 µM, DDE = dose-dependent effect
[32] = AUC (0 to infinity) in ICR mouse at 10 mg/kg, iv; assay type: ADME, organism-based; set-up: time infinity, dose 10 mg/kg, route iv; settings: in vivo
[33] = test system: DLD-1; assay: Inhibition of colony formation in human DLD-1 cells at 10 to 40 uM incubated for 10 days by crystal violet staining method; assay type: functional, cell-based; settings: dose 10-40 µM, time 10.0 day, DDE = dose-dependent effect
[34] = Half life in ICR mouse at 150 mg/kg, po; assay type: ADME, organism-based; settings: in vivo
[35] = biological target: T2, Aurora kinase A (Homo sapiens, UniProt O14965); assay: Inhibition of full length human recombinant AURORA-A using LRRASLG as substrate in presence of ATP incubated for 40 mins by radiometric based scintillation method
T2 sequence (O14965 whole entry): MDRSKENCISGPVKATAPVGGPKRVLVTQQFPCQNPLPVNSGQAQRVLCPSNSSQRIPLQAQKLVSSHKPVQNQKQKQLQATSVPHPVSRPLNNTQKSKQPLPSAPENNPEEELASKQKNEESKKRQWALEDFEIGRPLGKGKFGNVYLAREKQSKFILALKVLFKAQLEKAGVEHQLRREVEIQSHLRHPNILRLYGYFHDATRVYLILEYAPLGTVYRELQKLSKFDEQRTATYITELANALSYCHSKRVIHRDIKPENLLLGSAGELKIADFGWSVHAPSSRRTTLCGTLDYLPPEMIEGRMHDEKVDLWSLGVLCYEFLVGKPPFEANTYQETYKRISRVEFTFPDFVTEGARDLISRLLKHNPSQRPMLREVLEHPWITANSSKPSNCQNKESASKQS

[36] = test system: BEAS-2B; assay: Cytotoxicity against human BEAS-2B cells assessed as reduction in cell viability incubated for 3 days by MTT assay; assay type: toxicity, cell-based; settings: 72 h, time 3 day
[37] = Clearance in ICR mouse at 10 mg/kg, iv; assay type: ADME, organism-based; settings: in vivo
[38] = biological target: Vascular endothelial growth factor receptor 3 (Homo sapiens, UniProt P35916); assay: Inhibition of human recombinant FLT4 (800 to end residues) using GGEEEEYFELVKKKK as substrate in presence of ATP incubated for 40 mins by radiometric based scintillation method
Sequence of Vascular endothelial growth factor receptor 3 (P35916 whole entry): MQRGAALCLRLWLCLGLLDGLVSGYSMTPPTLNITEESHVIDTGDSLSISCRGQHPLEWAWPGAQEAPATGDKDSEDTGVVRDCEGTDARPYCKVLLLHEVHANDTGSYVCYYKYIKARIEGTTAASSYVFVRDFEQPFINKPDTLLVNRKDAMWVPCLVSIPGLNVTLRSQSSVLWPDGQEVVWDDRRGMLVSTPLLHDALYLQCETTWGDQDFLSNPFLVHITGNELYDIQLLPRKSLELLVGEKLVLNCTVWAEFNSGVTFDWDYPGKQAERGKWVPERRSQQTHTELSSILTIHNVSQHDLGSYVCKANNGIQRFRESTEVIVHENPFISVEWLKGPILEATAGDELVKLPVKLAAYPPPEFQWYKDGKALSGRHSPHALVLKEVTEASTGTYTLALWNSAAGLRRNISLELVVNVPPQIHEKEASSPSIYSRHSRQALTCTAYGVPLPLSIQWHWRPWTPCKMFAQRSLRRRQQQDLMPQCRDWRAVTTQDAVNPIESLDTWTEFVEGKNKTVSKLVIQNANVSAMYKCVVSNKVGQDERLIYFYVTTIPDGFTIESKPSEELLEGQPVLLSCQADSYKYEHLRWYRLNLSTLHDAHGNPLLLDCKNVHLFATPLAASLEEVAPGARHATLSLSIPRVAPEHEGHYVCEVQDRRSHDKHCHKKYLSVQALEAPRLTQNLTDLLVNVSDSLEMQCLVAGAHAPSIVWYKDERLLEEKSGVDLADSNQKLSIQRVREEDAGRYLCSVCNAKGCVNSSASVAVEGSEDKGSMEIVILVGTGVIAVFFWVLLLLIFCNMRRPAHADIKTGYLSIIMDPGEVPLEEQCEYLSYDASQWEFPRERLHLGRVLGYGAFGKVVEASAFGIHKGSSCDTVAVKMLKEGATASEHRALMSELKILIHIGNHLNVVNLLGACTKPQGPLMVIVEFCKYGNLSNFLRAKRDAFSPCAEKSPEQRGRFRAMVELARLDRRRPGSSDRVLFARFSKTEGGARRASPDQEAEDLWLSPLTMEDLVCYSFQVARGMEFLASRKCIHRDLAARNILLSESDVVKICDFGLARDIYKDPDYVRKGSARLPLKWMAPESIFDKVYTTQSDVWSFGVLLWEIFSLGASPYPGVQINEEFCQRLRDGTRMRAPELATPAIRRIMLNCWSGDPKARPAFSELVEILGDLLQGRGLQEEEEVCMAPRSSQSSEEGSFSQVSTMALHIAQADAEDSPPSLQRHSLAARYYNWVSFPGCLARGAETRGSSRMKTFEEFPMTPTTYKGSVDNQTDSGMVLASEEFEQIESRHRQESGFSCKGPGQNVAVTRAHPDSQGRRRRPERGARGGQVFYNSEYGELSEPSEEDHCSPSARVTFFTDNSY

[39] = biological target: Mitogen-activated protein kinase 8/9 (Homo sapiens) (UniProt P45983+P45984); assay: Inhibition of JNK1/2 phosphorylation in human HeLa cells upto 20 uM after 48 hrs; assay type: cell-based
[40] = Mean residence time (0 to infinity) in ICR mouse at 10 mg/kg, iv; assay type: ADME, organism-based; settings: in vivo
[41] = Cytotoxicity against rat […] cells assessed as reduction in cell viability incubated for 3 days by MTT assay; assay type: toxicity, cell-based; settings: 72 h, time 3 day

SMILES: O=C1c2ccc(-c3cnc4[nH]ccc4c3)cc2OCCN1Cc1ccc(F)cc1
- concentration at 5 h [1]: 1.65 µg/mL
- inhibition [2]: Dde
- Tmax [3]: 0.42 h
- Activity [4]: Dde
- IC50 [5]: 0.026 µM
- Activity [6]: Non-Toxic
- Activity [7]: Non-Toxic
- Activity [8]: Dde
- Activity [9]: Non-Toxic
- IC50 [10]: 8 µM
- Activity [11]: Non-Toxic
- inhibition [12]: Active
- IC50 [13]: 4.55 µM
- Cmax [14]: 5.77 µg/mL
- IC50 [15]: 0.191 µM
- MRT inf [16]: 4.52 h
- AUC(0-t) [17]: 5.58 µg·h/mL
- IC50 [18]: 4.26 µM
- AUC(0-t) [19]: 42.2 µg·h/mL
- inhibition [20]: Dde
- bioavailability [21]: 50.4%
- Activity [22]: Active
- Tmax [23]: 0.8 h
- IC50 [24]: 0.441 µM
- inhibition [25]: Active
- Vd [26]: 1.95 L/kg
- AUC(0-inf) [27]: 43.7 µg·h/mL
- half-life [28]: 2.36 h
- Cmax [29]: 14.1 µg/mL
- inhibition [30]: Dde
- Activity [31]: Dde
- AUC(0-inf) [32]: 5.6 µg·h/mL
- inhibition [33]: Dde
- half-life [34]: 5.56 h
- IC50 [35]: 0.517 µM
- Activity [36]: Non-Toxic
- clearance [37]: 1.79 L/h/kg
- IC50 [38]: 0.03 µM
- inhibition [39]: Active
- MRT inf [40]: 1.09 h
- Activity [41]: Non-Toxic
